This note sets out measurements from patent US20250296938A1, “Compounds that Interact with the Ras Superfamily for the Treatment of Cancers, Inflammatory Diseases, Rasopathies, and Fibrotic Disease” (SHY Therapeutics, LLC, priority 2018, published 2025).

The term inhibition denotes the drop in the measured response relative to a control, in per cent.

SMILES strings stand for the structures.

In one assay the test system is TNF-α. Description: Mouse TNF alpha quantification assay, LPS-stimulated RAW 264.7 macrophages. Type of assay: cell-based. Conditions: for inhibition at 10 µM: RAW264.7, 10 μM, LPS (100 ng/ml) added concurrently, 5 hours, RAW 264.7, read-out: TNFα % Inhibition; for inhibition at 30 µM: RAW264.7, 30 μM, LPS-stimulated RAW 264.7 macrophages. As to the method:
(§1) Cell lines: Abelson murine leukemia virus transformed macrophage cell line RAW 264.7 was purchased from ATCC and grown in complete DMEM-High Glucose medium supplemented with penicillin (100 U/mL), streptomycin (100 μg/mL), and 10% heat-inactivated FBS at 37° C. in a humidified incubator with 5% CO2.
(§2) Method: Cells were plated at 25000-40000 cells/well density in a 96-well plate. After a 3-hour incubation, macrophages were starved with DMEM plus 0.5% FBS overnight. The next day the small molecules to be tested were added to the cells in the final concentration of 30 μM (with 0.3% DMSO) 3 hours prior to LPS stimulation (100 ng/ml). After LPS stimulation cells were incubated at 37° C. for 16 h. Alternatively, compounds were also tested at 10 μM and LPS (100 ng/ml) was added concurrently and incubated 5 hours at 37° C. At the end of the incubation periods, culture medium was collected and production of LPS-induced TNF-α and IL-6 cytokine was measured using ELISA detection kits.
(§3) Sandwich ELISA: The ELISA Immunoassays Quantikine Mouse TNF-alpha (catalog number MTA00B) and IL6 (catalog number M6000B) were purchased from R&D Systems Inc., Minneapolis, MN. These 4.5 hours solid phase ELISAs were used to measure mouse TNF-α or IL-6 levels in macrophages culture supernatants. Assays were executed according to the manufacturer specifications.

A further assay deals with IL-6. Description: Mouse IL6 quantification assay, LPS-stimulated RAW 264.7 macrophages. The assay is classed as cell-based. Conditions: for inhibition at 10 µM: RAW264.7, 10 μM, LPS (100 ng/ml) added concurrently, 5 hours, RAW 264.7; for inhibition at 30 µM: RAW264.7, 30 μM, LPS-stimulated RAW 264.7 macrophages. As to the method:
as §1, §2, §3

For `COC1CCC(Nc2nc(-c3nccn3C)nc3sc(-c4cccc5[nH]ncc45)c(C)c23)C1` (centres unmarked) [drawing 760], the inhibition at 10 µM in the assay with TNF-α lay in the range of 1 to 25%; in the assay with IL-6, 51 to 75%.
As for `COc1c(O)nc(-c2ccccn2)nc1Oc1cnn(C)c1` [drawing 720], the inhibition at 30 µM in the assay on TNF-α was 0%; in the assay with IL-6, 26 to 50%.
For `Cn1ccc(-c2sc3nc(-c4nccn4C)nc(NC4CCOCC4)c3c2-c2ccccc2)n1` [drawing 681] the same measures were 1 to 25% and 26 to 50%.
Turning to `COc1nscc1-c1sc2nc(-c3nccn3C)nc(N3CCC(OC)C3)c2c1-c1ccccc1` (centres unmarked) [drawing 714], the inhibition at 30 µM in the assay with TNF-α and with IL-6 was 76 to 100% throughout.
Turning to `Cc1cnc(-c2nc(O)c3scc(-c4ccccn4)c3n2)n1C` [drawing 671], the inhibition at 30 µM with TNF-α and in the assay with IL-6 was 76 to 100% each time.
For `COc1cccc(Oc2nc(-c3ccccn3)nc(O)c2OC)c1` [drawing 723], the inhibition at 30 µM with TNF-α lay within 26 to 50%; in the assay with IL-6 it was 76 to 100%.
Turning to `Cc1c(-c2ccn(C)n2)sc2nc(-c3nccn3C)nc(NCCCS(C)(=O)=O)c12` [drawing 781], the inhibition at 10 µM in the assay on TNF-α and in the assay on IL-6 was 1 to 25% each time.
`CO[C@H]1C[C@@H](Nc2nc(-c3ccccn3)nc3sccc23)C1` [drawing 767]: the inhibition at 10 µM with TNF-α and in the assay with IL-6 was 1 to 25% each time.
For `COCC(C)Nc1nc(-c2nccn2C)nc2sc(-c3ccccc3Cl)c(-c3cscn3)c12` (centres unmarked) [drawing 691], the inhibition at 30 µM in the assay on TNF-α and in the assay on IL-6 was 76 to 100% each time.
As to `COc1cccc(-c2sc3nc(-c4nccn4C)nc(N[C@@H]4CC[C@H](OC)C4)c3c2C)c1F` [drawing 759], the inhibition at 10 µM in the assay with TNF-α and in the assay on IL-6 was 1 to 25% throughout.
Consider `COC1CCN(c2nc(-c3nccn3C)nc3sc(-c4cnc(C5CC5)o4)c(-c4ccccc4)c23)C1` (centres unmarked) [drawing 707], for which the inhibition at 30 µM in the assay with TNF-α was 26 to 50%; with IL-6 it was 76 to 100%.
For `COC1CCN(c2nc(-c3nccn3C)nc3sc(-c4ccn(C)n4)c(-c4ccccc4)c23)C1` (centres unmarked) [drawing 680] the same measures were 1 to 25% and 26 to 50%.
For the compound `COCCNc1nc(-c2nccn2C)nc2sc(-c3cc(OC)ccc3Cl)c(-c3ccc(OC)cc3)c12` [drawing 698], the inhibition at 30 µM is 26 to 50% in the assay with TNF-α and 51 to 75% in the assay with IL-6.
For `COCCNc1nc(-c2nccn2C)nc2sc(-c3cccc(OC)c3Cl)c(-c3ccc(OC)cc3)c12` [drawing 697], the results for the inhibition at 30 µM in the assay with TNF-α and in the assay on IL-6 were 0% and 26 to 50%, respectively.
For `O=C(NC1CCC1)c1nc(-c2ccccn2)nc(O)c1O` [drawing 736] the same measures were 1 to 25% and 76 to 100%.
For `COc1ccc(Oc2nc(-c3ccccn3)nc(O)c2OC)cc1` [drawing 724] the same measures were 1 to 25% and 76 to 100%.
On to `Cn1ccnc1-c1nc(O)c2scc(-c3ccccn3)c2n1` [drawing 664], for which the inhibition at 30 µM in the assay on TNF-α and with IL-6 was 76 to 100% each time.
Turning to `COCCNc1nc(-c2cn(C)cn2)nc2sc(-c3ccccc3Cl)c(-c3ccc(OC)cc3)c12` [drawing 699], the inhibition at 30 µM in the assay with TNF-α and with IL-6 was 76 to 100% throughout.
For `COC(=O)c1nc(-c2nccn2C)nc(O)c1O` [drawing 743], the inhibition at 30 µM with TNF-α and in the assay on IL-6 was 0% each time.
With `Cc1cc(Cn2ccnc2-c2nc(O)c3scc(-c4ccccn4)c3n2)on1` [drawing 668], the results for the inhibition at 30 µM with TNF-α and with IL-6 were 51 to 75% and 76 to 100%, respectively.
For `CC(C)CNC(=O)c1nc(-c2ccccn2)nc(O)c1O` [drawing 734] the same measures were 26 to 50% and 76 to 100%.
As for `COCC(C)Nc1nc(-c2nccn2C)nc2sc(-c3ccn(C)n3)c(-c3ccccc3)c12` (centres unmarked) [drawing 679], the inhibition at 30 µM in the assay with TNF-α and with IL-6 was 76 to 100% in each case.
As for `CCN(CC)C(=O)c1nc(-c2nccn2C)nc(O)c1O` [drawing 738], the inhibition at 30 µM in the assay with TNF-α is 1 to 25%; in the assay with IL-6, 0%.
On to `COCCNC(=O)c1sc2nc(-c3nccn3C)nc(N[C@@H]3CC[C@H](OC)C3)c2c1-c1ccccc1` [drawing 790], for which the inhibition at 10 µM is 1 to 25% with TNF-α and 51 to 75% in the assay on IL-6.
Take `COCCc1ccc(Oc2nc(-c3ccccn3)nc(O)c2OC)cc1` [drawing 725]: the figures for the inhibition at 30 µM in the assay with TNF-α and with IL-6 were 1 to 25% and 76 to 100%, respectively.
As for `COc1cccc(-c2csc3c(O)nc(-c4nccn4C)nc23)c1Cl` [drawing 663], the inhibition at 30 µM in the assay on TNF-α lay in the range of 26 to 50%; with IL-6, 76 to 100%.
`Cn1ccc(-c2sc3nc(-c4nccn4C)nc(N[C@H]4C[C@@H](O)C4)c3c2-c2ccccc2)n1` [drawing 773]: the figures for the inhibition at 10 µM with TNF-α and with IL-6 were 0% and 26 to 50%, respectively.
For the compound `COC1CCN(c2nc(-c3nccn3C)nc3sc(-c4ccccc4CO)c(-c4ccccc4)c23)C1` (centres unmarked) [drawing 713], the inhibition at 30 µM in the assay on TNF-α and in the assay with IL-6 was 76 to 100% throughout.
With `Oc1nc(-c2ccccn2)nc(CN2CCc3ccccc3C2)c1O`, the inhibition at 30 µM in the assay on TNF-α and with IL-6 was 0% each time.
As for `CC(C)CN(C)C(=O)c1nc(-c2ccccn2)nc(O)c1O` [drawing 733], the inhibition at 30 µM with TNF-α and in the assay with IL-6 was 0% in each case.
Regarding `CC(C)COc1ccc(-c2csc3c(O)nc(-c4nccn4Cc4ccccn4)nc23)cn1` [drawing 764], the inhibition at 10 µM is 1 to 25% in the assay on TNF-α and 76 to 100% in the assay on IL-6.
Regarding `COC1CCN(c2nc(-c3nccn3C)nc3sc(-c4cccc(O)c4F)c(-c4ccccc4)c23)C1` (centres unmarked) [drawing 755], the inhibition at 10 µM in the assay on TNF-α lay within 1 to 25%; with IL-6, 26 to 50%.
For `COC1CCC(Nc2nc(-c3nccn3C)nc3sc(-c4cccc5[nH]ncc45)c(-c4ccccc4)c23)C1` (centres unmarked) [drawing 753], the inhibition at 10 µM with TNF-α is 51 to 75%; in the assay on IL-6 it was 76 to 100%.
On to `COCC(C)Nc1nc(-c2nccn2C)nc2sc(-c3ccn(C)n3)c(-c3ccc(OC)cc3)c12` (centres unmarked) [drawing 689], for which the figures for the inhibition at 30 µM in the assay with TNF-α and in the assay with IL-6 were 0% and 76 to 100%, respectively.
The matching figures for `COCCCN(C)c1nc(-c2nccn2C)nc2sc(-c3ccn(C)n3)c(-c3ccccc3)c12` [drawing 678]: 51 to 75% and 1 to 25%.
The matching figures for `O=C(c1nc(-c2ccccn2)nc(O)c1O)N1CCOCC1` [drawing 728]: 1 to 25% and 0%.
On to `COc1ccc(-c2sc3nc(-c4nccn4C)nc(N4CCC(OC)C4)c3c2-c2ccccc2)cn1` (centres unmarked) [drawing 705], for which the inhibition at 30 µM in the assay with TNF-α and in the assay on IL-6 was 76 to 100% each time.
For the compound `Oc1nc(-c2cn(-c3ccccc3)cn2)nc2c(-c3ccccn3)csc12` [drawing 675], the inhibition at 30 µM with TNF-α is 0%; in the assay on IL-6, 76 to 100%.
The matching figures for `Oc1nc(-c2ncc3n2CCCC3)nc2c(-c3ccccn3)csc12` [drawing 665]: 51 to 75% and 76 to 100%.
As for `CO[C@H]1C[C@@H](Nc2nc(-c3nccn3C)nc3sc(-c4ccn(C)n4)c(C)c23)C1` [drawing 779], the inhibition at 10 µM with TNF-α fell in the range of 1 to 25%; in the assay with IL-6, 76 to 100%.
